Melting point data for 88 compounds are collected here from a melting point compilation (Tetko et al.; mined from patent text by program, amines drawn as free bases though some values may be those of a salt).

Each structure is given as a SMILES string.

As usually defined, the melting point is the temperature of the solid-liquid transition.

As for `CNC(=O)c1cnn(-c2cccc(Cl)c2)c1Cl`, the melting point lay within 163 to 165 °C.

`CCOC(=O)C=Cc1cc(C(C)=O)ccc1OC` showed a melting point of 90 °C.

Consider `O=C1C(=O)N2c3ccccc3Sc3cccc1c32`, for which the melting point is 203 to 206 °C.

`COc1ccc2ccc(N3C(=O)c4ccccc4C3OC(=O)CCC(C)C)nc2n1` (stereo not drawn) showed a melting point of 133 °C.

In the case of `CN(C)C1(c2cccc(F)c2)CC=C(c2[nH]c3ccccc3c2CCc2ccncc2)CC1` (stereo not drawn), the melting point lay in the range of 194 to 198 °C.

`CCn1cc(-c2cccc(C(F)(F)F)c2)c(=O)n1-c1cccc(Br)c1` yielded a melting point of 106 °C.

With `CC(C)(C)OC(=O)N1CC(=O)Nc2cccc(F)c21`, the melting point fell in the range of 155 to 156 °C.

Consider `CSc1[nH]cc(CCc2ccccc2)c1[N+](=O)[O-]`, for which the melting point lay within 198 to 200 °C.

In the case of `O=C(OCc1ccccc1)N1CCc2c(sc3nc(CCl)c(Cl)c(-c4ccc(OCc5ccccc5)cc4)c23)C1`, the melting point is 144 to 145 °C.

Compound `FC(F)(F)c1ccc(-c2cc(C(F)(F)F)n3cnc(I)c3n2)cc1` returned a melting point of 141 °C.

Take `CC#CCOc1nsc(-c2ccccc2)n1`: the melting point was 70.3 °C.

As to `N[C@H]1CCCC[C@H]1Nc1cc2c(cc1F)c(=O)c(C(=O)O)cn2C1CC1` (relative stereo), the melting point lay in the range of 270 to 274 °C.

`CNc1nc(OC(F)F)cc(OC(F)F)n1` gave a melting point of 54 to 55 °C.

As to `CCc1cccc(NS(=O)(=O)c2ccc(N3CCNC3=O)cc2)c1`, the melting point was 188 to 190 °C.

With `CCCN1CCc2[nH]c3ccc4scc(C)c4c3c2C1`, the melting point was found to be 169 °C.

In turn, `Cc1cc(NS(=O)(=O)c2cccs2)c2[nH]c(C(=O)NCCSC(c3ccccc3)(c3ccccc3)c3ccccc3)cc2c1` showed a melting point of 214 to 215 °C.

As for `COc1ccc(CN2CC(=O)Nc3ccc(OC)cc3C2=O)c(OC)c1`, the melting point came to 196 °C.

Compound `CC(c1ccccc1)C(C(=O)c1ccccc1)n1cncn1` (stereo not drawn) yielded a melting point of 166 to 168 °C.

As to `CCOC(=O)c1oc2cc(-c3ccc(CO)cc3)ccc2c1C`, the melting point lay within 135 to 136 °C.

`Cc1oc2c(C=O)cccc2c1C` registered a melting point of 56 to 58 °C.

In turn, `CC(C)(C#N)c1cc(O)cc2cc(-c3ccc(O)cc3)oc12` showed a melting point of 284 °C.

The compound `NC(=O)c1c(Cl)c(-c2ccccc2)n2c1CN(C(=O)c1cccs1)CC2` showed a melting point of 236 to 238 °C.

Regarding `N#CCC1(c2ccc(Cl)cc2)CCC1`, the melting point was in the range of 63 to 65 °C.

Turning to `Cc1n[nH]c2c1C(=O)CC(c1cc(Cl)sc1Cl)C2` (stereo not drawn), the melting point lay within 167 to 168 °C.

Turning to `Cc1c(Cl)cccc1C(=N)NO`, the melting point is 119 to 121 °C.

Regarding `CC(c1oc2ccccc2c(=O)c1-c1cccc(F)c1)n1nc(-c2ccc3cn[nH]c3c2)c2c(N)ncnc21` (stereo not drawn), the melting point lay within 206 to 208 °C.

As for `O=C(C=Cc1ccccc1F)C=Cc1ccccc1F`, the melting point is 68 to 72 °C.

As to `O=C(O)c1cc(-c2nccs2)[nH]c1C(CC1CCOCC1)c1ccc(S(=O)(=O)C2CC2)cc1` (stereo not drawn), the melting point was 153 to 155 °C.

As for `CCCCCCCCCCCCCCCCCCOc1ccc([N+](=O)[O-])cc1[N+](=O)[O-]`, the melting point lay in the range of 63.5 to 64 °C.

`COC(=O)c1cc(N2CCC2)c(C(F)(F)F)cc1[N+](=O)[O-]` gave a melting point of 127 to 136 °C.

The compound `CCc1cccc(N2C(=S)SCC2(O)CC)n1` (stereo not drawn) came in with a melting point of 84 °C.

Regarding `COC(=O)c1nc2cc(Cl)c(OC)c(Cl)c2c(O)c1C(=O)OC`, the melting point was in the range of 210 to 211 °C.

In turn, `CSc1ncc(Cc2ccc(C)nc2)c(=O)[nH]1` returned a melting point of 197 to 198 °C.

On to `Cc1ncc2cc(-c3ccc(F)cc3)c(N)nc2n1`, for which the melting point fell in the range of 252 to 254 °C.

Take `CS(=O)(=O)c1ccc(-c2cnn(-c3cccc(Cl)c3)c(=O)c2-c2ccc(F)cc2)cc1`: the melting point fell in the range of 232 to 235 °C.

For `Clc1nccnc1Oc1ccc2c(c1)OCO2`, the melting point is 87 to 88 °C.

Compound `CCOC(=O)c1sc(C(=O)OCC)c2c1OCC(CC)(CC)CO2` displayed a melting point of 100 °C.

Turning to `Cc1cc(C)c(-n2nnc3c(-c4ccc(Cl)cc4Cl)nc(C)nc32)c(C)c1`, the melting point was in the range of 167 to 168 °C.

In the case of `CC(C)(S)CNC(=O)c1ccccc1-c1ccccc1C(=O)O`, the melting point is 150 to 153 °C.

As to `N=C(N)c1ccc2c(c1)N(CC(=O)c1ccccc1-c1ccccc1)C(=O)CN2`, the melting point fell in the range of 148 to 150 °C.

`CCCc1nccn1N=Cc1ccccc1`: the melting point fell in the range of 61 to 62 °C.

On to `CCN1Cc2ccccc2C(=O)c2cc(CC(=O)O)ccc21`, for which the melting point lay in the range of 141 to 144 °C.

As for `CC(=O)Nc1ccc(N2CCC(N(C)Cc3ccccc3)CC2)cc1`, the melting point came to 147 °C.

As for `COc1cc(COc2ncccc2CC#N)ccc1OCc1nc(-c2ccccc2)oc1C`, the melting point lay within 108 to 109 °C.

`Cc1ccc2c(c1)Cn1nnnc1C(=S)N2` showed a melting point of 293 to 296 °C.

As to `CN1CCN(c2nc3sc4c(NCc5cccnc5)ncnc4c3c3c2CCC(C)(C)C3)CC1`, the melting point fell in the range of 210 to 212 °C.

The compound `O=C(Nc1ccc(N2CCN(C(=O)Nc3ccc(OCCO)cc3C(F)(F)F)CC2)cc1)Nc1nc(C2CC2)cs1` had a melting point of 120 to 123 °C.

With `Cc1cc(-c2ccc(Cl)c(Cl)c2)nc(-n2cnc(-c3ccc(S(N)(=O)=O)cc3)c2)n1`, the melting point came to 282 °C.

`C=CCOC(=O)CCCOc1cc([N+](=O)[O-])c(CO)cc1OC` had a melting point of 73 to 75 °C.

Turning to `Fc1cc(F)c2c(Nc3c(Cl)ccc4c3OCO4)ncnc2c1`, the melting point lay within 234 to 237 °C.

With `CNCC(O)C1=CNC2C=CC=CC12` (stereo not drawn), the melting point lay within 117 to 120 °C.

For the compound `Cc1c(-c2ccccc2)nc(C(F)(F)F)oc1=O`, the melting point was found to be 70 °C.

As for `COc1ccc(C(=O)N(C)C)c(-c2ccccc2)c1OC`, the melting point fell in the range of 101 to 102 °C.

Take `COCCOc1cc(N(C)S(=O)(=O)c2ccccn2)c2[nH]c(C3=NCC(CN4CCS(=O)(=O)CC4)S3)cc2c1` (stereo not drawn): the melting point turned out to be 115 °C.

`O=S1(=O)CCC(c2cc(F)ccc2F)(S(=O)(=O)c2ccc(Cl)cc2)CC1`: the melting point lay in the range of 204 to 206 °C.

`C=CCOc1nc(SC)nc(N2CCc3ccccc3CC2)c1C#N`: the melting point fell in the range of 103 to 105 °C.

Regarding `CC(C)(Sc1nc(N)cc(Cl)n1)c1ccccn1`, the melting point was in the range of 183 to 184 °C.

As to `COc1cccc(C(F)(F)F)c1NS(=O)(=O)c1nc2nc(O)cc(O)n2n1`, the melting point lay in the range of 237 to 243 °C.

`CC(=O)Nc1nc2c(Oc3cc(-c4ccc(C(F)(F)F)cc4NC(=O)C4CCCCN4CC(C)C)ncn3)cccc2s1` (stereo not drawn) registered a melting point of 153 to 155 °C.

As for `CSc1c(Cl)ccc(C(=O)O)c1F`, the melting point lay within 183 to 185 °C.

In the case of `CC(C)(C)c1ccc2occ(N)c(=S)c2c1`, the melting point was found to be 168 °C.

Regarding `N#Cc1nn(-c2c(Cl)cc(C(F)(F)F)cc2Cl)c(Sc2ccccc2)c1SC(F)(F)F`, the melting point was in the range of 84 to 86 °C.

`Cc1cccc(Cl)c1OC1CN(C(=O)Cl)C1` displayed a melting point of 67 to 69 °C.

In the case of `CCOC(=O)C1=C(C)NC(C(OCC)OCC)=C(C(=O)OCC)C1c1ccco1` (stereo not drawn), the melting point was in the range of 59 to 60 °C.

For `CCCc1c(OCCCCCOc2ccc3ccc(OCC(=O)O)cc3c2C(C)=O)ccc(C(C)=O)c1O`, the melting point is 103 to 106 °C.

`O=C1NC(=O)C(=Cc2ccc3c(c2)CN(c2ccccn2)CCO3)S1` registered a melting point of 260 to 261 °C.

Consider `CCOC(=O)/C=C/c1cn(Cc2ccccc2)nc1OCc1ccccc1`, for which the melting point fell in the range of 88 to 89 °C.

Regarding `CCS(=O)(=O)N1CCSc2ccccc2C1`, the melting point lay in the range of 78 to 80 °C.

As for `Cc1c(C(=O)Nc2ccc(SCCCN3CCCCC3)c(C#N)c2)cnn1-c1ccc(Cl)cc1`, the melting point was 142 °C.

`CCC1=Nc2cc(CO)ccc2C(=O)C1` came in with a melting point of 254 to 257 °C.

As for `CC1=CN2CCS(=O)(=O)N=C2C(c2ccc(OC3CCCCC3)cc2)=N1`, the melting point fell in the range of 216 to 217 °C.

`CCNC(=O)CN(c1c(Cc2c(F)cccc2F)cccc1OC)S(=O)(=O)c1ccc(OC)c(OC)c1` showed a melting point of 180 °C.

In turn, `COC(=O)C(C)(C)c1ccc2c(c1)c(=O)[nH]c(=O)n2CCCCBr` came in with a melting point of 164 to 165 °C.

In turn, `O=C(CCCCCCCBr)OC(C(=O)c1ccccc1)c1ccccc1` (stereo not drawn) gave a melting point of 60 to 61 °C.

`CN(Cc1ccc(C(=O)Cn2cnc3cc(-c4ccc(Cl)cc4)sc3c2=O)cc1)C(=O)C(F)(F)F` gave a melting point of 235 to 238 °C.

Compound `CC(C)(C)c1cc(C(c2cc(C(C)(C)C)c(O)c(C(C)(C)C)c2)c2ccco2)cc(C(C)(C)C)c1O` showed a melting point of 158 to 159 °C.

`CS(=O)(=O)c1ccc(Cc2ccc3ccccc3c2O)cc1` displayed a melting point of 144 to 145 °C.

`COC(=O)CSc1c(C)cc(C(O)(C(F)(F)F)C(F)(F)F)cc1C` yielded a melting point of 99 to 101 °C.

The compound `OCc1cnc2cc(Br)ccc2c1O` returned a melting point of over 300 °C.

In turn, `COc1ccc(S(=O)(=O)N2C(=O)C(O[Si](C)(C)C)(c3ccccc3OC)c3cc(Cl)ccc32)c(OC)c1` (stereo not drawn) registered a melting point of 157 to 158 °C.

In turn, `CCOc1ccc2c(c1)C(C)(c1ccccc1Cl)C(=O)N2S(=O)(=O)c1ccc(C(=O)O)cc1` (stereo not drawn) had a melting point of 174 °C.

Regarding `CCOC(=O)c1c(-c2ccccc2C)c2cc(C)c(Cl)cc2[nH]c1=O`, the melting point is 290 to 291 °C.

Compound `O=C(O)c1ccc(-c2ccc3cc(CCCO)c(C45CC6CC(CC(C6)C4)C5)cc3c2)cc1` displayed a melting point of 268 to 269 °C.

Compound `Cc1ccc(NC(=O)c2cccc(N(C)C)c2)cc1NC(=O)c1ccc(N(C)CCCN(C)C)cc1` returned a melting point of 178 to 179 °C.

Turning to `CCOCC1C(C(=O)O)C1(C)C` (stereo not drawn), the melting point was 40 to 40.5 °C.

Compound `Cn1c(COc2ccc(CC3SC(=O)NC3=O)cc2)nc2ccc(Oc3cccc(NC(=O)NC45CC6CC(CC(C6)C4)C5)c3)cc21` (stereo not drawn) showed a melting point of 227 to 231 °C.

`COc1nc(C)c(C)nc1NC(=S)N1CCN(c2cc(C)cc(C)c2)CC1` had a melting point of 160 to 162 °C.

Turning to `O=C(Cn1cc(Cl)cn1)c1ccc(Br)s1`, the melting point came to 127 °C.
